Activity calls are given as the source filed them.
Key:
P388/ADR = test: cells; assay type: functional; conditions: Mus musculus
SN12K1 = test: cells; assay type: functional; conditions: Homo sapiens
P388 = test: cells; assay type: functional; conditions: Mus musculus
[1] = target: T1, Low molecular weight phosphotyrosine protein phosphatase (Homo sapiens, UniProt P24666); assay type: functional; conditions: read-out: IC50_Mean;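 also: Dose-response confirmation assay measuring inhibition of LMPTP enzyme activity by fluorescence intensity read-out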
T1 sequence (P24666 whole entry): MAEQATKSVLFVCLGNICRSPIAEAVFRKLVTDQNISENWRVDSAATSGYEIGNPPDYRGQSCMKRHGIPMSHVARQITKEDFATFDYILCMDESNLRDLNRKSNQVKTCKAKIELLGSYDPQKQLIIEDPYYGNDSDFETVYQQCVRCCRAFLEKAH

[2] = target: T2, Sentrin-specific protease 8 (Homo sapiens, UniProt Q96LD8); test: SENP8 protease inhibitors, SAR follow-up, biochemical, luminescence (AID 504501); assay type: functional
T2 sequence (Q96LD8 whole entry): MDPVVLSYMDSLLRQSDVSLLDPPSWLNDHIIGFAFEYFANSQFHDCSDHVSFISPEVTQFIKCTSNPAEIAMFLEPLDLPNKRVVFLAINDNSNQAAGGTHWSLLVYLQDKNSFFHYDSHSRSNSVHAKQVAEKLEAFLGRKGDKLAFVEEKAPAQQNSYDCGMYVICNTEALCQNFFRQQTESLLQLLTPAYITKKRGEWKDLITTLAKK

Caspase-3 [3] = target: T3, Caspase-3 (Homo sapiens, UniProt P42574); test: SAR Analysis of small molecule inhibitors of Sentrin-specific proteases (SENPs) using a Caspase-3 Selectivity assay. [Related pubchem assays (depositor defined):AID2540, AID2599, AID434973, AID489001]; assay type: functional
T3 sequence (P42574 whole entry): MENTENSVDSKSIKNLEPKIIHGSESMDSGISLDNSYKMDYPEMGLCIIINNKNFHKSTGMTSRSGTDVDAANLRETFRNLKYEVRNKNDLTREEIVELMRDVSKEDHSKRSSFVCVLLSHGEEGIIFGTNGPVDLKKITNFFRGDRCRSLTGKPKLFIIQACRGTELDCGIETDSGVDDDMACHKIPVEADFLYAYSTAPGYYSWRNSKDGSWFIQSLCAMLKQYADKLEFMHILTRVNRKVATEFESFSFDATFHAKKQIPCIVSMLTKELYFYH

[4] = target: T4, Sentrin-specific protease 6 (Homo sapiens, UniProt Q9GZR1); test: SAR Analysis of small molecule inhibitors of Sentrin-specific protease 6 (SENP6) using a Luminescent assay. [Related pubchem assays (depositor defined):AID2582, AID2599]; assay type: functional
T4 sequence (Q9GZR1 whole entry): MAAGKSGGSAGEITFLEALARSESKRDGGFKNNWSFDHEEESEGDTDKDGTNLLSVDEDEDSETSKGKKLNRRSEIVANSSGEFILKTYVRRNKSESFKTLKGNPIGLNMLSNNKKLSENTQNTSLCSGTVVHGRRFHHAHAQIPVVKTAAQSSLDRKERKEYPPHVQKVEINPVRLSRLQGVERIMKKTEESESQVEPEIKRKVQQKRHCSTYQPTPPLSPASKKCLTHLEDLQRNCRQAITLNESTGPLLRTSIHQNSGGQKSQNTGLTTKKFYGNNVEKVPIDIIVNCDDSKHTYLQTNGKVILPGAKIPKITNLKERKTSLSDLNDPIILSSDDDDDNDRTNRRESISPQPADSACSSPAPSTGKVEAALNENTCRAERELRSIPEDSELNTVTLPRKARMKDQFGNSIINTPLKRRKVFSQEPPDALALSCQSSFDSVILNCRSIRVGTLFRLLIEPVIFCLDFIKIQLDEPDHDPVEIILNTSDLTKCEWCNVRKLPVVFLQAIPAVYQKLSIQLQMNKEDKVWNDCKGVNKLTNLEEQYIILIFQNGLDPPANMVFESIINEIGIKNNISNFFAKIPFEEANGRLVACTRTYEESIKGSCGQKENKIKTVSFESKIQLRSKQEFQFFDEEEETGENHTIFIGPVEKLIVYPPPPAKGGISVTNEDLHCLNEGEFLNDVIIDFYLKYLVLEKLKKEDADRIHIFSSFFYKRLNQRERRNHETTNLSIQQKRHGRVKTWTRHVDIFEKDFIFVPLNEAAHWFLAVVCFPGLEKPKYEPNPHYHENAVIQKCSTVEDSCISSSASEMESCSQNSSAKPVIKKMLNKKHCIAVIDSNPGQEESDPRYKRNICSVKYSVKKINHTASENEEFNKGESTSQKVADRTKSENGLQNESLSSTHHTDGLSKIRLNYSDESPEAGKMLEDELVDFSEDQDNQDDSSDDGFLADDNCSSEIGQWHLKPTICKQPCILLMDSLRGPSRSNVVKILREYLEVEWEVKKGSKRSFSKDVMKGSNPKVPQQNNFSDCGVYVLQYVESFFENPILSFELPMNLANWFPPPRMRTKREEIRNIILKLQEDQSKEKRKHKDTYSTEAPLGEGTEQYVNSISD

[5] = target: T5, Sentrin-specific protease 7 (Homo sapiens, UniProt Q9BQF6); test: SENP7 protease inhibitors, SAR follow-up, biochemical, luminescence (AID 504497); assay type: functional
T5 sequence (Q9BQF6 whole entry): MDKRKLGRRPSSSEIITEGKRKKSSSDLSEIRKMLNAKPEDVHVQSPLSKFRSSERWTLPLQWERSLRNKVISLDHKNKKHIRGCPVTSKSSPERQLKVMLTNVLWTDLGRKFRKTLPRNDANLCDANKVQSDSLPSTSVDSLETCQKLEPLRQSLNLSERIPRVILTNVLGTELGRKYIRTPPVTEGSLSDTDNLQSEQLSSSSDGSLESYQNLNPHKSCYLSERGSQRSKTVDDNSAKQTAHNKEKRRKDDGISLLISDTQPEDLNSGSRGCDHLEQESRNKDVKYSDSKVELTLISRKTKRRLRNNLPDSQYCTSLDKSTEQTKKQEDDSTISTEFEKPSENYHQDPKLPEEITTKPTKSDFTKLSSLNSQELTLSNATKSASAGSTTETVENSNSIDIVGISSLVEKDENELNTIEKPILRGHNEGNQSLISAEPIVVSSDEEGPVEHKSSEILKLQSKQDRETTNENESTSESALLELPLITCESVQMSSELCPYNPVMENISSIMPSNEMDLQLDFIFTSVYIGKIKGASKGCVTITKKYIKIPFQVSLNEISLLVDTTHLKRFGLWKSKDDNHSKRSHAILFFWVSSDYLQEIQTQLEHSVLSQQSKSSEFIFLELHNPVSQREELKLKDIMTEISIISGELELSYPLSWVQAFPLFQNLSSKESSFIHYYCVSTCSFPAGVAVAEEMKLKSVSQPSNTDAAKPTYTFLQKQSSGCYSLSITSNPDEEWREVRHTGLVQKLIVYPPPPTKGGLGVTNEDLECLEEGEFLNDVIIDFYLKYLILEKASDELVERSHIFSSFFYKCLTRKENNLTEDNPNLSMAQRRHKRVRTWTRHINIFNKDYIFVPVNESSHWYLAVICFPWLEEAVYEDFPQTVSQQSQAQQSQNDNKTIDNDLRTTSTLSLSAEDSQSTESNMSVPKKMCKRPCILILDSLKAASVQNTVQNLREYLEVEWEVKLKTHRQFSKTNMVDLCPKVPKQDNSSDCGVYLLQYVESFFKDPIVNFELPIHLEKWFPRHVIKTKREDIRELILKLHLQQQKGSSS

[6] = HEp-2 cell cytotoxicity, dose response, cytotoxicity control for RSV inhibitor project, HTS (AID 2410); assay type: functional; conditions: human respiratory syncytial virus
Melanocortin receptor 4 = Melanocortin receptor 4 (Homo sapiens, UniProt P32245); assay type: functional, cell-based;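 also: Cell-based assay with luminescence read-out, confirmatory dose-response testing for agonist activity of biased ligands at MC4R; human U2OS cells with tagged receptor and beta-arrestin; potency of agonists that increase receptor coupling to beta-arrestin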
Chain of Melanocortin receptor 4 (P32245 whole entry, the tested form may be a part): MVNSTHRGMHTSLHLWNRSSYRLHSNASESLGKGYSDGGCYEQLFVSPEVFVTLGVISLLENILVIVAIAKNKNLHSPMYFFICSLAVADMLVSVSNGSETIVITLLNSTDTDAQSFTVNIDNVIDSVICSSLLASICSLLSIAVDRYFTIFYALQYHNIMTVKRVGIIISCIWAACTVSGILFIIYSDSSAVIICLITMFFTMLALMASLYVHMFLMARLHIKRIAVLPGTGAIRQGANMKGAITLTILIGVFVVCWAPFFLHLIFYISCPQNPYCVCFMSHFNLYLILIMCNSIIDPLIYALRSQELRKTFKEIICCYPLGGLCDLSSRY

[7] = inhibitors of HIV Env-driven cell fusion, dose response, cherry-pick (AID 652057); assay type: functional, cell-based
[8] = CEM21 lymphoblast cell cytotoxicity, dose response, cytotoxicity control for viral fusion inhibitor project, CellTiter-Glo luminescence, cherry-picked (AID 652042); assay type: functional, cell-based;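 also: potency for signal decrease meaning cytotoxicity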
[9] = ZM109 Env clade C HIV-1 fusion inhibitors, dose response, HeLa effector, CEM target cells, luciferase, cherry-pick (AID 652058); assay type: functional, cell-based
[10] = off-target signal loss in HeLa-CEM21 co-culture – HeLa F-luc CTL cells, cherry-picked, counter-screen for HIV-1 Env fusion inhibitor project, dose response (AID 652040); assay type: functional, cell-based;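 also: potency for signal decrease marking cytotoxic or nonspecific inhibition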
[11] = inhibitors of clade B AD8 Env fusion, dose response, cell-based, cherry-pick (AID 652062); assay type: functional;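 also: luciferase signal from cell-cell fusion driven by HIV-1 clade B AD8 Env; potency is for inhibitors of fusion seen as a drop in luminescence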
H9c2 = test: cells; assay type: functional, cell-based; conditions: Rattus norvegicus, H9c2, Myocardium;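 also: confirmatory concentration-response retest of ultra-high-throughput screening hits for modulation of myocardial damage; cell death induced by hydrogen peroxide oxidative stress; compound pretreatment for 60 min then peroxide exposure for 2 h; potency is for protecting the cells against peroxide damage rather than for killing them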
[12] = inhibitors of intracellular T. cruzi replication, confirmation, NIH3T3 host cells, beta-gal luminescence (AID 2044); assay type: functional, cell-based;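 also: intracellular parasites grown in NIH/3T3 mouse fibroblasts as host cells; luminescent beta-galactosidase reporter signal from transgenic T. cruzi replicating inside host cells; inhibitors lower the luminescence signal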
[13] = cytotoxicity toward NIH3T3 fibroblasts, dose response, counter-screen, cell-based, ATP luminescence, mouse fibroblasts (AID 2010); assay type: functional;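 also: cells exposed to compound for about 90 hours before reading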
[14] = target: T6, Ubiquitin-conjugating enzyme E2 N (Homo sapiens, UniProt P61088); assay type: functional;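 also: Dose-response confirmation in a TR-FRET assay detecting UBC13-driven polyubiquitin chain formation, inhibition measured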
T6 sequence (P61088 whole entry): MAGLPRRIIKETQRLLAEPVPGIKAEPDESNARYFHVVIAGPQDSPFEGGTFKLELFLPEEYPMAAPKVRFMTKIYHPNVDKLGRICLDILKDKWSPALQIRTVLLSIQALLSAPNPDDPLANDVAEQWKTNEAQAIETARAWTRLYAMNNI

[15] = target: T7, DNA repair protein RAD52 homolog (Homo sapiens, UniProt P43351); assay type: functional, biochemical
T7 sequence (P43351 whole entry): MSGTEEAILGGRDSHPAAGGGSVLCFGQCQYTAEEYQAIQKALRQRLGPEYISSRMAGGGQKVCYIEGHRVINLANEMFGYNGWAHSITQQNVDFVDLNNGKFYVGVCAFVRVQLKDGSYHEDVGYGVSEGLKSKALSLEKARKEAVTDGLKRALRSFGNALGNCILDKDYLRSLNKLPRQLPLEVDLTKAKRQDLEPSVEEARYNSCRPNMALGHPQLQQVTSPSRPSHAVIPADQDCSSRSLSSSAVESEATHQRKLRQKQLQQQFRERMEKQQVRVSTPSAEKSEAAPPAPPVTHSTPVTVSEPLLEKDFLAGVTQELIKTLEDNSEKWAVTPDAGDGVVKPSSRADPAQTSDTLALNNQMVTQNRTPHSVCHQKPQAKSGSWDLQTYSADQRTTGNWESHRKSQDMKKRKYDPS

Caspase-3 [16] = target: T3, Caspase-3; assay type: functional
[17] = target: T5, Sentrin-specific protease 7; assay type: functional
[18] = target: T4, Sentrin-specific protease 6; assay type: functional
[19] = target: T2, Sentrin-specific protease 8; assay type: functional

Row | Compound | GI50 (P388/ADR) | GI50 (SN12K1) | GI50 (P388) | IC50 [2] | IC50 (Caspase-3 [3]) | IC50 [4] | IC50 [5] | also measured
1 | CSCSCC(CO)NC(=O)/C(C)=C\c1c(C)[nH]c(=O)[nH]c1=O (centres undefined) | > 250 µM (inactive) | > 250 µM (inactive) | > 250 µM (inactive) |  |  |  |  | 
2 | O=c1[nH]c2ccccc2n1C1CCN(Cc2ccc(-c3nc4cc5[nH]cnc5cc4nc3-c3ccccc3)cc2)CC1 |  |  |  |  |  |  |  | IC50 [1]: 7.43 µM (active)
3 | O=C(Nc1nc2ccc(NC(=O)c3n[nH]c4c3CCc3ccccc3-4)cc2s1)c1ccccc1 |  |  |  | > 99 µM (inactive) | > 99 µM (inactive) | > 99 µM (inactive) | > 99 µM (inactive) | 
4 | O=C(/C=C/c1ccc(OC2CSC2)cc1)c1ccc(Cl)cc1 |  |  |  | > 99 µM (inactive) | > 99 µM (inactive) | > 99 µM (inactive) | > 99 µM (inactive) | 
5 | O=c1c2ccccc2nc2sc(Nc3cccc(Cl)c3)nn12 |  |  |  |  |  |  |  | IC50 [1]: 14.5 µM (active)
6 | CCOc1cc(CNCCc2c[nH]c3ccccc23)cc(Cl)c1OCC |  |  |  |  |  |  |  | CC50 [6]: 14.9 µM (active); EC50 (Melanocortin receptor 4): > 89.2 µM (inactive); AC50 [7]: 4.29 µM (active); AC50 [8]: 26.6 µM (active); AC50 [9]: 2.31 µM (active); AC50 [10]: 6.11 µM (active); AC50 [11]: 27.2 µM (active)
7 | COc1cccc(-c2cnc3c(NC=O)cc(-c4cc(OC)c(OC)c(OC)c4)cn23)c1 |  |  |  |  |  |  |  | IC50 (H9c2): > 79 µM (inactive); EC50 (Melanocortin receptor 4): > 89.2 µM (inactive)
8 | C/C(=C\c1ccccc1)C(=O)CCN1CCOCC1 | 5.73 µM (inactive) | 17.9 µM (inactive) | 4.78 µM (inactive) |  |  |  |  | 
9 | CC(=O)Oc1ccc(C2COc3cc(OC(C)=O)c(OC(C)=O)cc3C2)cc1 (centres undefined) | 5.42 µM (inactive) | 13 µM (inactive) | 6 µM (inactive) |  |  |  |  | 
10 | O=C(O)CC(NC(=O)CP(=O)(O)O)C(=O)O (centres undefined) | 77.1 µM (inactive) | 5.32 µM (inactive) | 127 µM (inactive) |  |  |  |  | 
11 | N=C(N)Nc1nc(-c2ccccc2)c2cc(Cl)ccc2n1 |  |  |  |  |  |  |  | EC50 [12]: 0.382 µM (active); EC50 [13]: > 60 µM (not active); IC50 [14]: > 20 µM (inactive); EC50 (Melanocortin receptor 4): > 89.2 µM (inactive); AC50 [15]: 6.61 µM (active)
12 | Fc1cc(C(F)(F)F)ccc1-c1nc(/C=C/c2ccccc2)no1 |  |  |  | > 99 µM (inactive) | > 99 µM (inactive) | > 99 µM (inactive) | > 99 µM (inactive) | 
13 | CCc1ccc2oc(-c3ccc(NC(C)=O)cc3)nc2c1 |  |  |  | 5.46 µM (active) | 7.01 µM (active) | 5.12 µM (active) | 2.09 µM (active) | CC50 [6]: 22.2 µM (active); IC50 (Caspase-3 [16]): 12.4 µM (active); IC50 [17]: 2.89 µM (active); IC50 [18]: 8.05 µM (active); IC50 [19]: 13.2 µM (active)

Source: ChEMBL document CHEMBL1201862, “PubChem BioAssay data set” (2004)
